Source: paper PMC10466336, “Chemical Probe for Imaging of Polo-like Kinase 4 and Centrioles” (JACS Au, 2023)

How the values were obtained:
[1] = target: T1, Plk4 kinase domain (Homo sapiens, UniProt O00444); assay: Competition binding assay based on fluorescence polarization (tracer Alexa488-PEG-N-centrinone); settings: for Kd: Alexa488-PEG-N-centrinone 1 nM, Plk4-KD 5 nM; for binding affinity lower (KD higher) than that of unmodified centrinone: ratio of Kd to Kd of centrinone
T1 construct: Plasmids encoding fragments of Plk4 kinase domain (2-275) with 6xHis-tag were cloned in pET system vectors; made in house; host or cells: E. coli BL21 gold (DE3)
T1 sequence (O00444 2-275): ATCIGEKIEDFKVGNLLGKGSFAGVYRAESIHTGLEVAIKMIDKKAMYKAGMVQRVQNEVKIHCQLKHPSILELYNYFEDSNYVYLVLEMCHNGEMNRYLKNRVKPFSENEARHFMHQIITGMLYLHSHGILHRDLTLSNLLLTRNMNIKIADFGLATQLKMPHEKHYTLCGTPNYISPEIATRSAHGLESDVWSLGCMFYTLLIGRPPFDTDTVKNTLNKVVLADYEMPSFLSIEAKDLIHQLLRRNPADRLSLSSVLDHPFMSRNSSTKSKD
Description: Moreover, we substituted the basic acetyl-piperazine nitrogen in compounds (1 and 2a) with an acetyl-piperidine, to avoid probe protonation and accumulation in endolysosomal compartments (Figure S1A, B).[23] […] These probes were characterized first in vitro by measuring their fluorogenicity in the presence of the 6xHis-tagged Plk4 kinase domain (KD) (Table 1). […] Next, we measured the binding affinities of the probes to the Plk4 kinase domain via a competition binding assay based on fluorescence polarization. […]
1.3.6 Fluorescence Polarization assay & competition assay […]
plate (Greiner Bio-One). Upon mixture of protein and ligand, the plate was incubated for 30 min at room temperature followed by fluorescence polarization measurements by a plate reader (TECAN Spark® 20M) using 485 nm as excitation wavelength (bandwidth 20 nm) and 535 nm as emission wavelength (bandwidth 25 nm). The obtained fluorescence polarization values from each well were plotted against the concentration of the protein. The apparent Kd values were obtained by fitting the curve to the […]
FP = FP + FPmax ― FPmin (C + C + K ― (C + C + K )2 ― 4C C ) […]
protein should be around the Kd of the tracer to ensure that enough free protein that can bind the […]
competitor, and enough signal change coming from binding and unbinding of the tracer. The solution of the tracer and protein was titrated with increasing amounts of competitors, in our case SiR650- and […]
The mixture was then incubated for an hour at room temperature and the FP was then measured on a plate reader using the same conditions as mentioned before. From the obtained FP values, we have calculated the amount of free protein in the solution for each concentration of competitor using the equation of the single-site binding isotherm:
Pfree = Kd_tracer FP ― FP
Where Pfree is concentration of free protein, Kd tracer represents the previously determined binding affinity

[2] = test system: HeLa cells expressing Centrin1-GFP; assay: Centriole phenotypic scoring (number of Centrin1-GFP foci); type: cell-based, human
Description: Having established that SiR595-centrinone (2d) can successfully label overexpressed Plk4, we wanted to investigate whether it also marks endogenous Plk4. […] In contrast, partial Plk4 inhibition leads to increased levels of centriolar Plk4 due to partial interference with protein degradation mediated by autophosphorylation, overall resulting in centriole overamplification.[8] Therefore, both under-duplication and overamplification of centrioles can be used as a proxy for SiR595-centrinone binding to endogenous Plk4. […] We conclude that the failure of SiR595-centrinone (2d) to detect endogenous Plk4 is due to the low binding affinity of the probe in combination with low protein levels. […] In the second step, the Plk4-bound molecule is specifically reacted with an appropriate fluorogenic tetrazine dye.[27]−[33] This strategy was applied previously successfully to label various protein targets in live and fixed cells,[30],[32],[34]−[38] and we reasoned that a smaller and potentially more permeable Cen-TCO (3) derivative would likewise enable more efficient labeling of endogenous Plk4.
We conjugated trans-cyclooctene to the previously obtained compound (4) to obtain Cen-TCO (3) using the synthetic route outlined in Scheme S2. The resulting Cen-TCO (3) reacted with an appropriate tetrazine, such as SiR650-TetH (4a) (Figure S4A). The reaction was followed by LC-MS, and the data confirmed quantitative conversion of Cen-TCO (3) to the appropriate cycloaddition product Cen-Click-SiR650 (Figure S4A, D). […] To assess the phenotype caused by Cen-TCO (3), we incubated HeLa cells expressing Centrin1-GFP with different concentrations of Cen-TCO (3) for 24 h, followed by scoring of Centrin1-GFP foci numbers (Figure S5B). […] Despite the high unspecific background signal, a clear focus could be detected at centrioles (Figure 4B). […] The fwhm of the circular signal in this case was 368 ± 26 (N = 6) (Figure S7B), which corresponds to the size measured with overexpressed GFP-Plk4(K41M) (see Figure 3D), and approximately that of the torus region surrounding the centriole.[40] […]

COc1c(Nc2cc(C)[nH]n2)nc(Sc2ccc(S(=O)(=O)Cc3cccc([N+](=O)[O-])c3F)cc2F)nc1N1CCC(CC(=O)NCCNC(=O)c2ccc(C(=O)O)c(C3=C4C=CC(=N)C=C4[Si](C)(C)c4cc(N)ccc43)c2)CC1 [2d]
Kd [1]: 38 ± 5 nM | binding affinity lower (KD higher) than that of unmodified centrinone [1]: 42 fold | effect on centriole numbers ([2]; 2 μM, 24 h): did not affect centriole numbers

COc1c(Nc2cc(C)[nH]n2)nc(Sc2ccc(S(=O)(=O)Cc3cccc([N+](=O)[O-])c3F)cc2F)nc1N1CCC(CC(=O)NCCNC(=O)OC2CC/C=C/CCC2)CC1 (stereo not shown) [compound 3]
Kd [1]: 8 ± 1 nM | binding affinity lower (KD higher) than that of unmodified centrinone [1]: ~9 fold | binding affinity higher than that of SiR595-centrinone (2d) ([1]; ratio of Kd values): 4 fold | concentration causing the centriole under-duplication phenotype ([2]; 24 h incubation, scoring of Centrin1-GFP foci): ≥ 500 nM
